Measured values published in US4088772A, “Methanodibenzocycloheptapyrroles” (E. I. Du Pont de Nemours and Company, priority 1975, dated 1978).
Structures can show the parent of a compound that is named as a salt. Where two headings read alike, the source gives them in different places.

Legend:
in vivo = conditions: mouse, in vivo, po
Procedure: (§1) Groups of five Carworth CF1 S female mice, 16-20 g each, were fasted 16-22 hours before use. The mice were put in opaque plastic "shoe-box" cages 15-30 min. before injection, and then treated orally with 4, 12, 36, 108 and 324 mg/kg of the compound to be tested as a 13 mg/ml solution in 1% aqueous distilled water solution of methylcellulose (Methocel®). Each dose was given in a standard volume of 0.45 ml. Observations were made at 0.5, 2 and 24 hours after dosing. ED50 values were calculated for each parameter including death (LD50). The ED50 and LD50 values are the doses at which 50% of the naimals would be expected to respond.
(§2) The mouse is placed on a stainless steel wire mesh screen (8 × 12 inches, 3 mesh per inch, 1/4 inch mesh openings) "shoe-box" lid (1 inch high) and is observed for normal activities, such as nose movements, head movements with apparent visual examination of the area, and/or walking around on the screen. Absence of or marked depression of these activities for 5 seconds constitutes loss of exploratory activity.
(§3) The mouse is picked up by the tail and placed on the screen with its head facing the observer. Bilateral eyelid closure of 50% or more two seconds after placement is considered ptosis.
(§4) The mouse is placed with its front paws on the edge of a stainless steel "shoe-box" cover, 1 inch high, covered with adhesive tape. Failure to remove both paws from the cover's edge within 5 seconds constitutes catatonia.
(§5) The observer gently strokes the abdominal musculature of the mouse with thumb and forefinger. Flaccidity (or rarely, tenseness) is recorded.
(§6) The mouse is gently swung by the tail toward a horizontal 12 gauge wire tautly stretched 25 cm above the bench. After the mouse grasps the wire with its forepaws, its posterior end is held directly below the wire. A normal mouse grasps the wire with its forepaws and immediately lifts its hind limbs to the wire. Failure to grasp the wire with the forepaws in both trials constitutes loss of the grip reflex; failure to lift the hind limbs to grasp the wire with at least one hind paw within 5 seconds constitutes loss of the lift reflex.
(§7) The mouse is placed on the bar 10-20 cm horizontally and 9 cm vertically from a Galton whistle adjusted for 13 kc (5 mm on the whistle scale) and is subjected to several short bursts of sound.
(§8) An effective tranquilizer should induce little or no tremor response. […] Tremors include fine or coarse and intermittent or continuous tremors.

female white mice = test: animal or person; conditions: Mus musculus, po, oral, mice
Procedure: as §1, §2, §3, §4, §5, §6, §7, §8

[1] = test system: phenylquinone-induced writhing; test: Phenylquinone writhing test (analgesia); type: in vivo, mouse (Carworth CF1 S female); conditions: Mus musculus
Excerpt: This mouse test is predictive of analgesic response in humans. [E. Siegmund, R. Cadmus and G. Lee, Proc. Soc.
ED50 values were obtained graphically from the data.

[2] = read-out: Catatonia ED50, Table 1
[3] = read-out: Exploratory Loss Visual ED50, Table 1
[4] = read-out: Muscle Tone ED50, Table 1
[5] = read-out: Reflexes Grip ED50, Table 1
[6] = read-out: Reflexes Lift ED50, Table 1
[7] = read-out: Reflexes Pinna ED50, Table 1
[8] = read-out: Catatonia ED50, Table III
[9] = read-out: Exploratory Loss Visual ED50, Table III
[10] = read-out: Muscle Tone ED50, Table III
[11] = read-out: Ptosis ED50, Table III
[12] = read-out: Reflexes Grip ED50, Table III
[13] = read-out: Reflexes Lift ED50, Table III
[14] = read-out: Reflexes Pinna ED50, Table III

| SMILES | LD50 at 24 h (in vivo) [mg/kg] | ED50 (in vivo; Tremors ED50, Table 1, mice) [mg/kg] | ED50 (female white mice; [2]) [mg/kg] | ED50 (female white mice; [3]) [mg/kg] | ED50 (female white mice; [4]) [mg/kg] | ED50 (female white mice; read-out: Ptosis ED50, Table 1) [mg/kg] | ED50 (female white mice; [5]) [mg/kg] | ED50 (female white mice; [6]) [mg/kg] | ED50 (female white mice; [7]) [mg/kg] | ED50 ([1]; Table 1, oral, mice) [mg/kg] | ED50 (in vivo) [mg/kg] | ED50 ([1]; po, Table 1, mice) [mg/kg] | ED50 (female white mice; [8]) [mg/kg] | ED50 (female white mice; [9]) [mg/kg] | ED50 (female white mice; [10]) [mg/kg] | ED50 (female white mice; [11]) [mg/kg] | ED50 (female white mice; [12]) [mg/kg] | ED50 (female white mice; [13]) [mg/kg] | ED50 (female white mice; [14]) [mg/kg] | ED50 ([1]; po, Table III, mice) [mg/kg] |
| --- | --- | --- | --- | --- | --- | --- | --- | --- | --- | --- | --- | --- | --- | --- | --- | --- | --- | --- | --- | --- |
| CC(C)N1C[C@@H]2c3ccccc3[C@@H]3C[C@@]2(C1)c1ccccc13 (relative stereo) [Example 49, 2-Isopropyl-2,3,8,12b-tetrahydro-1H-3a, 8-methanodibenzo[3,4:6,7]cyclohepta[1,2-c]pyrrole] | 200 | > 324 | 60 | 60 | 7 | 12 | 200 | 36 | 20 | 10.8 | – | – | – | – | – | – | – | – | – | – |
| CCOC(=O)CCCN1CC2c3ccccc3C3CC2(C1)c1ccccc13 (stereo not shown) [Example 11, Ethyl 2,3,8,12b-Tetrahydro-1H-3a,8-methanodibenzo-[3,4:6,7]cyclohepta[1,2-c]pyrrole-2-butyrate] | > 324 | – | 100 | 100 | 200 | 100 | > 324 | > 324 | 100 | – | > 324 | 26 | – | – | – | – | – | – | – | – |
| c1ccc(CCCCN2C[C@@H]3c4ccccc4[C@@H]4C[C@@]3(C2)c2ccccc24)cc1 (relative stereo) [Example 61, 2-(4-Phenylbutyl)-2,3,8,12b-tetrahydro-1H-3a,8-methanodibenzo[3,4:6,7]cyclohepta[1,2-c]pyrrole] | > 324 | – | 20 | 20 | 20 | 36 | > 324 | 60 | 36 | – | – | 5.6 | – | – | – | – | – | – | – | – |
| CC(=O)Nc1ccc2c(c1)[C@]13C[C@H]2c2ccccc2[C@H]1CN(CC1CCCC1)C3 (relative stereo) [Example 65, 5-Acetamido-2-cyclopentylmethyl-2,3,8,12b-tetrahydro1H-3a,8-methanodibenzo[3,4:6,7]cyclohepta[1,2-c]pyrrole Hydrochloride] | 300 | – | – | – | – | – | – | – | – | – | – | – | 60 | 200 | 60 | 7 | > 324 | 60 | 36 | 18 |
| [O-][N+]1(CC2CCCC2)CC2c3ccccc3C3CC2(C1)c1ccccc13 (stereo not shown) [Cyclopentylmethyl-N-oxide, N-Oxide of 2-cyclopentylmethyl-2,3,8,12b-tetrahydro-1H-3a,8-methanodibenzo[3,4:6,7]cyclohepta[1,2-c]-pyrrole] | > 324 | – | 36 | 12 | 12 | ≤ 4 | > 324 | 20 | 7 | – | > 324 | 24 | – | – | – | – | – | – | – | – |
| c1ccc2c(c1)[C@@H]1C[C@@]3(CN(CC4CCCCCCC4)C[C@H]23)c2ccccc21 (relative stereo) [Example 34, 2-Cyclooctylmethyl-2,3,8,12b-tetrahydro-1H-3a,8-methanodibenzo[3,4:6,7]cyclohepta[1,2-c]pyrrole] | > 324 | – | 23 | 40 | 21 | 4 | > 324 | 62 | 97 | – | > 324 | 6 | – | – | – | – | – | – | – | – |
| C=CCC(O)c1ccc2c(c1)[C@]13C[C@H]2c2ccccc2[C@H]1CN(CC1CCCC1)C3 (stereo partly shown) [Example 75, 5-[1-(1-Hydroxy-3-butenyl)]-2-cyclopentylmethyl-2,3,8,12b-tetrahydro-1H-3a,8-methanodibenzo[3,4:6,7]cyclohepta[1,2-c]pyrrole Hydrochloride] | > 324 | – | – | – | – | – | – | – | – | – | – | – | 36 | 60 | 36 | 12 | 200 | 20 | 7 | 11 |
| c1ccc2c(c1)C1CC3(CN(CCC4CCCCC4)CC23)c2ccccc21 (stereo not shown) [Example 29, 2-(2-Cyclohexylethyl)-2,3,8,12b-tetrahydro-1H-3a,8-methanodibenzo[3,4:6,7]cyclohepta[1,2-c]pyrrole] | > 324 | – | 21 | 24 | 24 | 17 | 290 | 78 | 50 | – | > 324 | 28 | – | – | – | – | – | – | – | – |
| CC(C)(C)N1C[C@@H]2c3ccccc3[C@@H]3C[C@@]2(C1)c1ccccc13 (relative stereo) [Example 56, 2-Tertiarybutyl-2,3,8,12b-tetrahydro-1H-3a,8-methanodibenzo[3,4:6,7]cyclohepta[1,2-c]pyrrole] | 300 | 200 | 200 | 200 | 100 | 100 | 100 | 60 | 200 | 45 | – | – | – | – | – | – | – | – | – | – |
| c1ccc2c(c1)C1CC3(CN(CCCCC4CCCCC4)CC23)c2ccccc21 (stereo not shown) [Example 31, 2-(4-Cyclohexylbutyl)-2,3,8,12b-tetrahydro-1H-3a,8-methanodibenzo[3,4:6,7]cyclohepta[1,2-c]pyrrole] | > 324 | – | 26 | 21 | 24 | 17 | > 324 | 37 | 32 | – | > 324 | 14 | – | – | – | – | – | – | – | – |
| C1=C[C@@H]2C[C@H]1C[C@H]2CN1C[C@@H]2c3ccccc3[C@@H]3C[C@@]2(C1)c1ccccc13 (relative stereo) [Example 37, 2-(2-Exo-bicyclo[2.2.1]hept-5-enylmethyl)-2,3,8,12b-tetrahydro-1H-3a,8-methanodibenzo[3,4:6,7]cyclohepta[1,2-c]pyrrole] | 300 | – | 7 | 7 | 4 | ≤ 4 | 200 | 12 | 20 | – | > 324 | 2.4 | – | – | – | – | – | – | – | – |
| c1coc(CN2C[C@@H]3c4ccccc4[C@@H]4C[C@@]3(C2)c2ccccc24)c1 (relative stereo) [Example 42, 2-(2-Furylmethyl)-2,3,8,12b-tetrahydro-1H-3a,8-methanodibenzo[3,4:6,7]cyclohepta[1,2-c]pyrrole] | 300 | – | 36 | 60 | 20 | 20 | > 324 | 200 | 60 | – | > 324 | 26 | – | – | – | – | – | – | – | – |
| CCCN1C[C@@H]2c3ccccc3[C@@H]3C[C@@]2(C1)c1ccccc13 (relative stereo) [Example 58, 2-n-Propyl-2,3,8,12b-tetrahydro-1H-3a,8-methanodibenzo[3,4:6,7]cyclohepta[1,2-c]pyrrole] | 200 | – | 7 | 7 | 7 | 7 | 60 | 7 | 4 | 2.9 | – | – | – | – | – | – | – | – | – | – |
| c1ccc(CCN2C[C@@H]3c4ccccc4[C@@H]4C[C@@]3(C2)c2ccccc24)cc1 (relative stereo) [Example 39, 2-(2-Phenylethyl)-2,3,8,12b-tetrahydro-1H-3a,8-methanodibenzo[3,4:6,7]cyclohepta[1,2-c]pyrrole] | > 324 | – | 100 | 200 | > 324 | 200 | > 324 | 100 | 100 | – | 300 | 22 | – | – | – | – | – | – | – | – |
